The experiment has as its target T1, Angiotensin II (A II) receptor (Oryctolagus cuniculus, UniProt P34976).
T1 construct: tissue Pel-Freeze Biologicals; host or cells: rabbit aorta, membrane preparation
T1 sequence (P34976 1-359): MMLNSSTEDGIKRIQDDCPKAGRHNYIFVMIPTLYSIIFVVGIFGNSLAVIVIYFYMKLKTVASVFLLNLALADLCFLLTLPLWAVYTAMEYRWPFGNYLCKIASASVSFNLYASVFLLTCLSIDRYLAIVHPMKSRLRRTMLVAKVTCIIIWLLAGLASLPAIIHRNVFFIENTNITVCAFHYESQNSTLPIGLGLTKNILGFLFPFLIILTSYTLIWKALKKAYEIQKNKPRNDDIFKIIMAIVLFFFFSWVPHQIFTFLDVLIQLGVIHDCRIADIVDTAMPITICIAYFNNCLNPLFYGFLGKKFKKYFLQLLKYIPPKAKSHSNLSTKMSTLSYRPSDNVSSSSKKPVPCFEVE
As to the kind of experiment: Receptor binding assay using rabbit aortae membrane preparation ("IC50" assay; displacement of 125I-Sar1 Ile8-angiotensin II). To be noted: 37° C. for 90 minutes, read-out: inhibitory concentration (IC50) giving 50% displacement of total specifically bound 125I-Sar1 Ile8-angiotensin II. The method, then:
This assay is also referred to herein as the "IC50 " assay.
Receptor binding assay using rabbit aortae membrane preparation
Three frozen rabbit aortae (obtained from Pel-Freeze Biologicals) were suspended in 5 mM Tris-0.25M Sucrose, pH 7.4 buffer (50 ml) homogenized, and then centrifuged. The mixture was filtered through a cheesecloth and the supernatant was centrifuged for 30 minutes at 20,000 rpm at 4° C. The pellet thus obtained was resuspended in 30 ml of 50 mM Tris-5 mM MgCl2 buffer containing 0.2% Bovine Serum Albumin and 0.2 mg/ml Bacitration and the suspension was used for 100 assay tubes. Samples tested for screening were done in duplicate. To the membrane preparation (0.25 ml) there was added ^125 I-Sar^1 -Ile^8 -angiotensin II [obtained from New England Nuclear] (10 ul; 20,000 cpm) with or without the test sample and the mixture was incubated at 37° C. for 90 minutes. The mixture was then diluted with ice-cold 50 mM Tris-0.9% NaCl, pH 7.4 (4 ml) and filtered through a glass fiber filter (GF/B Whatman 2.4" diameter). The filter was soaked in scintillation cocktail (10 ml) and counted for radioactivity using Packard 2660 Tricarb liquid scintillation counter. […]
(In a radioligand displacement assay an active substance lowers the binding of a labelled ligand.)

Turning to `CCCCc1nc(Cl)c(CO)n1Cc1ccc(-c2ccccc2-c2nnn(C3OC(C(=O)O)C(O)C(O)C3O)n2)cc1` (stereo not shown) [compound (I)], the IC50 is < 50 µM.

The values above are taken from patent US5217882A, “Microbial transformation process for producing antihypertensive N2 -glucuronide products” (Merck & Co., Inc., priority 1992, dated 1993).
